# Results taken from ChEMBL document CHEMBL1137211, “Inhibitors of phenylethanolamine N-methyltransferase that are predicted to penetrate the blood-brain barrier: design, synthesis, and evaluation of 3-fluoromethyl-7-(N-substituted aminosulfonyl)-1,2,3,4-tetrahydroisoquinolines that possess low affinity toward the alpha2-adrenoceptor” (J Med Chem, 2004).
# Key:
# [1] = target: T1, Adrenergic receptor alpha-2 (Rattus norvegicus, UniProt P22086+P19328+P22909); experiment: Inhibition of [3H]clonidine binding to rat Alpha2 adrenoceptor; type: protein assay
# T1 sequence (P22086 whole entry): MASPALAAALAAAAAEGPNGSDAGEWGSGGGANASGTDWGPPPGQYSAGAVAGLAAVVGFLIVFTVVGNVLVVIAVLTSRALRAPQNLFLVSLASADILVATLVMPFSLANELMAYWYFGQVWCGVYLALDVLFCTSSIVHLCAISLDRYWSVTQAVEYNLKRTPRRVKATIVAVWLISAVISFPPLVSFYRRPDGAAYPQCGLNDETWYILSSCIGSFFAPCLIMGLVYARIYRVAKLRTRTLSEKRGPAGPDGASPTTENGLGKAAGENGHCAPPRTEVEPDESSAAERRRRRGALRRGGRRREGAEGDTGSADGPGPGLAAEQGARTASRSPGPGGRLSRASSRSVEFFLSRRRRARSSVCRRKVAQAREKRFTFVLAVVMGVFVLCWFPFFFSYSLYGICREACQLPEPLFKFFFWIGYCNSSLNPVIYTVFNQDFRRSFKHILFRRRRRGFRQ
# T1 sequence (P19328 whole entry): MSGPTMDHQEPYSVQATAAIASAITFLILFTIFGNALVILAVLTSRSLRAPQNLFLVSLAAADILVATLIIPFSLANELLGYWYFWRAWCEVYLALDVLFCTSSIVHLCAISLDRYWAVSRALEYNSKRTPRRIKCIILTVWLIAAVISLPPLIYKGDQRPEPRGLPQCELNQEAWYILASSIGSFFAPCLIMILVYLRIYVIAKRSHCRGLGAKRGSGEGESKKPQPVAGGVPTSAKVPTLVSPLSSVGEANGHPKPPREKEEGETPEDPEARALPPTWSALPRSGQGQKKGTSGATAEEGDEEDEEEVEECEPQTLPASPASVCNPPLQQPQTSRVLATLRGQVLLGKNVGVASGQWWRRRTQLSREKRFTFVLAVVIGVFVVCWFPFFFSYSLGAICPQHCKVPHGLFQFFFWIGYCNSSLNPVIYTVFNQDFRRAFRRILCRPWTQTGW
# T1 sequence (P22909 whole entry): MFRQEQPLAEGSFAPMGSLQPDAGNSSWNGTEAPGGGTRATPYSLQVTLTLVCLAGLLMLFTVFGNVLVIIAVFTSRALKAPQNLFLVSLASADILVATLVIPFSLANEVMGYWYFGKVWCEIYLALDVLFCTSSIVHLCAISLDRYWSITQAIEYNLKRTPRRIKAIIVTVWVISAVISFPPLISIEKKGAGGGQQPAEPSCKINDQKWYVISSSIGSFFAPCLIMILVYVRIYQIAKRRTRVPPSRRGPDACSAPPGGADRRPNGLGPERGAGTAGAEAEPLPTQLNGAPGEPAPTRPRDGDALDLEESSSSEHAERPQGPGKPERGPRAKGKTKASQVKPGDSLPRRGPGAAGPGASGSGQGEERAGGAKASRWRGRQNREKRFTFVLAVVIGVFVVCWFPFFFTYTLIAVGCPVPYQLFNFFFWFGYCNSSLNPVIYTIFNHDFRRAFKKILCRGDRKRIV
# [2] = target: T2, Phenylethanolamine N-methyltransferase (Homo sapiens, UniProt P11086)
# T2 sequence (P11086 whole entry): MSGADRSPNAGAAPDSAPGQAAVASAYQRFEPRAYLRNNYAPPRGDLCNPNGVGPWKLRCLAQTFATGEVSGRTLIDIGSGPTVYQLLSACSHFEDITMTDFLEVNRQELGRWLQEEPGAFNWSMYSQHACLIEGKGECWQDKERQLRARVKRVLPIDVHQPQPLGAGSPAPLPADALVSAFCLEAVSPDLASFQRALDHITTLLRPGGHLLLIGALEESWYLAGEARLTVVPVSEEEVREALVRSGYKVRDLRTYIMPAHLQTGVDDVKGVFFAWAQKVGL
# Description: Inhibition of [3H]methyl-AdoMet binding to human phenylethanolamine N-methyl-transferase expressed in Escherichia coli BL21
# [3] = species: Homo sapiens; experiment: Ratio of Ki for alpha-2-adrenoceptor to that of PNMT was determined
SMILES,Ki [1],Ki [2],Selectivity [3]
O=S(=O)(NCC(F)(F)F)c1ccc2c(c1)CNC(CF)C2 (stereo not given),1200 µM,,
O=S(=O)(Nc1ccc(F)cc1)c1ccc2c(c1)CNC(CF)C2 (stereo not given),86 µM,,
O=S(=O)(c1ccc2c(c1)CNC(CF)C2)N1CCSCC1 (stereo not given),190 µM,,
O=S(=O)(c1ccc2c(c1)CNC(CF)C2)N1CCCCC1 (stereo not given),820 µM,,
CCOCCCNS(=O)(=O)c1ccc2c(c1)CNC(CF)C2 (stereo not given),350 µM,,
O=S(=O)(Nc1ccc(Cl)cc1)c1ccc2c(c1)CNC(CF)C2 (stereo not given),140 µM,,
O=[N+]([O-])c1ccc(NS(=O)(=O)c2ccc3c(c2)CNC(CF)C3)cc1 (stereo not given),> 1000 µM,,
O=[N+]([O-])c1cccc(NS(=O)(=O)c2ccc3c(c2)CNC(CF)C3)c1 (stereo not given),> 1000 µM,250 µM,> 4
O=S(=O)(NCCCC(F)(F)F)c1ccc2c(c1)CNC(CF)C2 (stereo not given),350 µM,,
CC(C)NS(=O)(=O)c1ccc2c(c1)CNC(CF)C2 (stereo not given),580 µM,,
O=S(=O)(NC12CC3CC(CC(C3)C1)C2)c1ccc2c(c1)CNC(CF)C2 (stereo not given),100 µM,,
O=S(=O)(Nc1ccc(O)cc1)c1ccc2c(c1)CNC(CF)C2 (stereo not given),280 µM,,
O=S(=O)(NC1CCc2ccccc2C1)c1ccc2c(c1)CNC(CF)C2 (stereo not given),1.3 µM,,
O=S(=O)(c1ccc2c(c1)CNC(CF)C2)N1CCOCC1 (stereo not given),2100 µM,,
Clc1ccc2c(c1Cl)CNCC2,0.02 µM,,

# The remaining lines, values ahead:
Ki [1],Ki [2],Selectivity [3],SMILES
550 µM,,,CCNS(=O)(=O)c1ccc2c(c1)CNC(CF)C2 (stereo not given)
260 µM,,,CCCCNS(=O)(=O)c1ccc2c(c1)CNC(CF)C2 (stereo not given)
12 µM,,,O=S(=O)(Nc1ccc2ccccc2c1)c1ccc2c(c1)CNC(CF)C2 (stereo not given)
750 µM,,,COCCCNS(=O)(=O)c1ccc2c(c1)CNC(CF)C2 (stereo not given)
660 µM,,,O=S(=O)(NCCC(F)(F)F)c1ccc2c(c1)CNC(CF)C2 (stereo not given)
430 µM,,,COCCNS(=O)(=O)c1ccc2c(c1)CNC(CF)C2 (stereo not given)
6.8 µM,,,O=S(=O)(NCCCCc1ccccc1)c1ccc2c(c1)CNC(CF)C2 (stereo not given)
> 1000 µM,890 µM,> 1.1,O=S(=O)(Nc1cccc(Cl)c1)c1ccc2c(c1)CNC(CF)C2 (stereo not given)
58 µM,,,O=S(=O)(NCCc1ccccc1)c1ccc2c(c1)CNC(CF)C2 (stereo not given)
440 µM,,,CCOCCNS(=O)(=O)c1ccc2c(c1)CNC(CF)C2 (stereo not given)
610 µM,,,CCCNS(=O)(=O)c1ccc2c(c1)CNC(CF)C2 (stereo not given)
